ChEMBL document CHEMBL1201862, “PubChem BioAssay data set” (2004)
Calls of active or inactive are those of the source.

Experiments:
[1] = target: Induced myeloid leukemia cell differentiation protein Mcl-1 (Homo sapiens, UniProt Q07820); type: functional
[2] = target: DNA dC->dU-editing enzyme APOBEC-3A (Homo sapiens, UniProt P31941); test: A3A deaminase inhibition for selectivity – biochemical, dose response (AID 504722); type: functional
[3] = target: DNA damage-inducible transcript 3 protein (Mus musculus, UniProt P35639); type: functional, Cricetulus griseus
[4] = Counterscreen for activators of the function of SWI/SNF related, matrix associated, actin dependent regulator of chromatin, subfamily a, member 2 (SMARCA2, BRM): Luminescence-based cell-based high throughput dose response assay to identify non-selective compounds using the VP16 reporter assay.; type: functional
[5] = target: T1, Rac GTPase-activating protein 1 (Homo sapiens, UniProt Q9H0H5); test: blockers of MgcRacGAP-driven Rac1 GTP hydrolysis – biochemical, ADP Hunter fluorescence, primary and confirmatory, confirmation (AID 624330); type: functional
T1 sequence (Q9H0H5 whole entry): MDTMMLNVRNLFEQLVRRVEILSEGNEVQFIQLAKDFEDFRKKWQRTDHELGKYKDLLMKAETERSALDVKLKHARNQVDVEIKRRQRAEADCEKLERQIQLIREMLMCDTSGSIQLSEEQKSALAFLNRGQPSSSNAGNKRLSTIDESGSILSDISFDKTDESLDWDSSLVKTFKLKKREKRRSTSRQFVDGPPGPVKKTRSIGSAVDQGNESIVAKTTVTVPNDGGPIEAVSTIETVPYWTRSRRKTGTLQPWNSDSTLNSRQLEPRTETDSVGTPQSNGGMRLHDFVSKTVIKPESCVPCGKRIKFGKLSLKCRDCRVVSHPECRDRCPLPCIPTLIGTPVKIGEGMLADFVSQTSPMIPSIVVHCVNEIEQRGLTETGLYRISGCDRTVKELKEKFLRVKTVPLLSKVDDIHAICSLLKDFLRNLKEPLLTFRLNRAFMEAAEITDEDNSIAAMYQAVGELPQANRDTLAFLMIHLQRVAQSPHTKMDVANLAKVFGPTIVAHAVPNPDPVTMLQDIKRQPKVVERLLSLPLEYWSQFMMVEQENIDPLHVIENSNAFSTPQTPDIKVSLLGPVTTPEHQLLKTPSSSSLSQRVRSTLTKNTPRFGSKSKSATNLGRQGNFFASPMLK

[6] = target: T2, Mannose-6-phosphate isomerase (Homo sapiens, UniProt P34949); test: MPI enzyme activity inhibition – biochemical, fluorescence intensity, coupled assay, primary screen (AID 1209)
T2 sequence (P34949 whole entry): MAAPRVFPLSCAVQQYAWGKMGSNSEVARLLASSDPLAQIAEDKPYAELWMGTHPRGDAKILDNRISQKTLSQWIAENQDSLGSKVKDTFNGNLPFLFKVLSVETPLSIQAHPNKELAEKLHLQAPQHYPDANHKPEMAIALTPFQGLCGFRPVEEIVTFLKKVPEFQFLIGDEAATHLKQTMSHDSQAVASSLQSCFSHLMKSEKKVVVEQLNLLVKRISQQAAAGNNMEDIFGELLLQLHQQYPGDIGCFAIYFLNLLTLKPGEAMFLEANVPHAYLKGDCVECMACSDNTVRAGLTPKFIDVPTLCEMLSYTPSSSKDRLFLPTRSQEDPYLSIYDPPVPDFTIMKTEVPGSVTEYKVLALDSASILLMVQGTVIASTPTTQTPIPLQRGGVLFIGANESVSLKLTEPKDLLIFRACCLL

[7] = target: DNA dC->dU-editing enzyme APOBEC-3G (Homo sapiens, UniProt Q9HC16); test: Dose Response confirmation of small molecule APOBEC3G DNA Deaminase Inhibitors via a fluorescence-based single-stranded DNA deaminase assay. [Related pubchem assays (depositor defined):AID493012, AID493028]; type: functional
[8] = target: SWI/SNF-related matrix-associated actin-dependent regulator of chromatin subfamily A member 2 (Homo sapiens, UniProt P51531); test: Luminescence-based cell-based high throughput dose response assay to identify activators of the function of SWI/SNF related, matrix associated, actin dependent regulator of chromatin, subfamily a, member 2 (SMARCA2, BRM).; type: functional
[9] = target: T3, Short transient receptor potential channel 4 (Mus musculus, UniProt Q9QUQ5); test: block of DAMGO-driven TRPC4 calcium entry – cell-based, HEK293 TRPC4/mu-opioid, Fluo-4 calcium, dose response (AID 434942); type: functional;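 also: potency of inhibitors blocking the TRPC4 calcium response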
T3 sequence (Q9QUQ5 whole entry): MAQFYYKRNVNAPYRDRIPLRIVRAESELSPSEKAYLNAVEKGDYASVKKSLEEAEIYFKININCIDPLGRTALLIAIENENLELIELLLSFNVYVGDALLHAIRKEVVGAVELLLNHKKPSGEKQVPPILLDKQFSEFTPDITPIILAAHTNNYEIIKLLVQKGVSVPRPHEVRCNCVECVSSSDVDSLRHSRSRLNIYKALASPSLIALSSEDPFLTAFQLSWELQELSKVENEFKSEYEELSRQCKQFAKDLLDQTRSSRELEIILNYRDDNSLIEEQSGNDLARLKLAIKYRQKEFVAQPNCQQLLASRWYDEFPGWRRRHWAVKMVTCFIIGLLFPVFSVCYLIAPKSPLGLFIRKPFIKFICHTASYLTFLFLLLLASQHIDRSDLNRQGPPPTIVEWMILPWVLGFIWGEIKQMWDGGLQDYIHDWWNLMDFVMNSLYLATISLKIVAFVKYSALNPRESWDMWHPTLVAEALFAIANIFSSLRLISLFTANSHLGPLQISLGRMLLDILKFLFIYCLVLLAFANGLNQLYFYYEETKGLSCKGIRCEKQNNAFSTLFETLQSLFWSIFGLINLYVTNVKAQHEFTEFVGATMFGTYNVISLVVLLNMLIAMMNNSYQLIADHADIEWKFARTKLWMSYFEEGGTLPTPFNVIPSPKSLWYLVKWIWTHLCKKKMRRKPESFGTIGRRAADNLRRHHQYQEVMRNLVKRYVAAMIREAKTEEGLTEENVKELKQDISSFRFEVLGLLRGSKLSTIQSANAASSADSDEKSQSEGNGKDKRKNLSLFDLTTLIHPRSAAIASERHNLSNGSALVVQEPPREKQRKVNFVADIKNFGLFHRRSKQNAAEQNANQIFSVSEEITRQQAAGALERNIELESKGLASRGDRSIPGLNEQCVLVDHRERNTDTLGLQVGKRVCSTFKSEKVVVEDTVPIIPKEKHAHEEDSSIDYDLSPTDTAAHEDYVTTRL

[10] = target: T4, Sentrin-specific protease 1 (Homo sapiens, UniProt Q9P0U3); test: SENP1 catalytic domain blockers, concentration series – biochemical, kinetic FRET, dose response (AID 651697); type: functional; settings: read-out: IC50_Mean
T4 sequence (Q9P0U3 whole entry): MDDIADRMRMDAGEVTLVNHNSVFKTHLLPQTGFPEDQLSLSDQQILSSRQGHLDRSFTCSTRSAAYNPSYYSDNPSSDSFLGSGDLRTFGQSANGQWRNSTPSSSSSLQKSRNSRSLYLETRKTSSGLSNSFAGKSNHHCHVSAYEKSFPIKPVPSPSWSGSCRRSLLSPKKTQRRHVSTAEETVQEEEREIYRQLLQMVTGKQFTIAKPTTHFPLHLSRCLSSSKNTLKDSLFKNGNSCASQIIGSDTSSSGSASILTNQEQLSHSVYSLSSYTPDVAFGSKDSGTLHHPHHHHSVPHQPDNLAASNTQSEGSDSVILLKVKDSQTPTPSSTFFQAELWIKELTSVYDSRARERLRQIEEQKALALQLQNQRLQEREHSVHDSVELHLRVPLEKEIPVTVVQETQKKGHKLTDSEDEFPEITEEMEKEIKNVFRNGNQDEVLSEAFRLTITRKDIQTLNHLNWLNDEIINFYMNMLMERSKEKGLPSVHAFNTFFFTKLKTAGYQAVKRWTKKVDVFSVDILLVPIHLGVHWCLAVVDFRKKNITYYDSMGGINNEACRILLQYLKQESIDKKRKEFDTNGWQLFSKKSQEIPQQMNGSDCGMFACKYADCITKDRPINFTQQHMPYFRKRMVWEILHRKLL

[11] = target: T5, Corticotropin-releasing factor receptor 2/Corticotropin-releasing factor-binding protein (Homo sapiens, UniProt P24387+Q13324); test: activators of CRF receptor 2 with binding protein – uHTS hits, confirmation (AID 602473); type: functional; settings: read-out: EC50_Mean
T5 sequence (Q13324 whole entry): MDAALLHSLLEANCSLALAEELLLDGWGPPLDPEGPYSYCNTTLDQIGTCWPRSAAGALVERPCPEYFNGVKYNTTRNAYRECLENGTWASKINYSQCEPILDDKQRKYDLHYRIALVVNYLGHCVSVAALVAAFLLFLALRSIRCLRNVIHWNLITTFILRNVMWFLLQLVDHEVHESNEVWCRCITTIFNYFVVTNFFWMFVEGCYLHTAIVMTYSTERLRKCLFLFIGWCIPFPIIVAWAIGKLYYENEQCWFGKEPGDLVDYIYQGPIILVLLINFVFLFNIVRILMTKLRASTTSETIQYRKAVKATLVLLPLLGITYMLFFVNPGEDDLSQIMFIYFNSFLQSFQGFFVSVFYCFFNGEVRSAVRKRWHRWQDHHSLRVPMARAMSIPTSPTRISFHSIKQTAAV
T5 sequence (P24387 whole entry): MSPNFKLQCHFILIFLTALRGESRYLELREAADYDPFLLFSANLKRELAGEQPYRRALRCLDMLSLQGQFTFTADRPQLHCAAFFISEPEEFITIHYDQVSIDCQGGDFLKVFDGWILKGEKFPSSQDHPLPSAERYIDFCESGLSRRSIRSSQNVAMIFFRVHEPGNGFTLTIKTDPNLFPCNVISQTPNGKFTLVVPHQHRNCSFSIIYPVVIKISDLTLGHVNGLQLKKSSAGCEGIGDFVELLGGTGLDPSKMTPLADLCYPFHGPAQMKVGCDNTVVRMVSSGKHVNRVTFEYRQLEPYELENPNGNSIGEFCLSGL

[12] = target: T4, Sentrin-specific protease 1; test: Dose response confirmation of small molecule inhibitors of the catalytic domain of the SUMO protease, SENP1 in a FRET assay.; type: functional; settings: read-out: IC50_Mean
[13] = target: Intestinal-type alkaline phosphatase (Homo sapiens, UniProt P09923); test: Dose Response confirmation of uHTS hits from a small molecule inhibitors of human intestinal alkaline phosphatase via a luminescent assay. [Related pubchem assays (depositor defined):AID2544, AID2574]; type: functional
[14] = target: Eukaryotic translation initiation factor 4H (Homo sapiens, UniProt Q15056); test: inhibitors of translation initiation factor eIF4H – SAR follow-up (AID 435011); type: functional
[15] = target: Polyadenylate-binding protein 1 (Homo sapiens, UniProt P11940); test: PABP inhibition in translation initiation, SAR follow-up (AID 435018); type: functional
Sequence of Polyadenylate-binding protein 1 (P11940 whole entry): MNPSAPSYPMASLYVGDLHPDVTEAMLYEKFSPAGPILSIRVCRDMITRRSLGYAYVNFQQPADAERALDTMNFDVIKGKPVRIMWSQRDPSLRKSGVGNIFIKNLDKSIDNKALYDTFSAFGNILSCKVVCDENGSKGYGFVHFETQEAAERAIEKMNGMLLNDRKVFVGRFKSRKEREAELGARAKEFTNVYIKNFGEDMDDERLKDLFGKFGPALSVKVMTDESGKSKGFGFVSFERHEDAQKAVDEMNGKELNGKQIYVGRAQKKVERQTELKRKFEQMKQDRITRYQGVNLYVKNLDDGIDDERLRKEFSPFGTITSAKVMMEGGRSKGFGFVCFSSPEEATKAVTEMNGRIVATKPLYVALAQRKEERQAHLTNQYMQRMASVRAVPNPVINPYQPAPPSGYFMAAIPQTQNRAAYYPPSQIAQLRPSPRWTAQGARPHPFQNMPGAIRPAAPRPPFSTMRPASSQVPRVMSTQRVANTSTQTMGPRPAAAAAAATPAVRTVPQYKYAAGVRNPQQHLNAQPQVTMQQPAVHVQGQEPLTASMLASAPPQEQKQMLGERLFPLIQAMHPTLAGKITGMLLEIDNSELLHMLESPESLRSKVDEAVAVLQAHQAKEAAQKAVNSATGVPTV

Sequence of DNA dC->dU-editing enzyme APOBEC-3G (Q9HC16 whole entry): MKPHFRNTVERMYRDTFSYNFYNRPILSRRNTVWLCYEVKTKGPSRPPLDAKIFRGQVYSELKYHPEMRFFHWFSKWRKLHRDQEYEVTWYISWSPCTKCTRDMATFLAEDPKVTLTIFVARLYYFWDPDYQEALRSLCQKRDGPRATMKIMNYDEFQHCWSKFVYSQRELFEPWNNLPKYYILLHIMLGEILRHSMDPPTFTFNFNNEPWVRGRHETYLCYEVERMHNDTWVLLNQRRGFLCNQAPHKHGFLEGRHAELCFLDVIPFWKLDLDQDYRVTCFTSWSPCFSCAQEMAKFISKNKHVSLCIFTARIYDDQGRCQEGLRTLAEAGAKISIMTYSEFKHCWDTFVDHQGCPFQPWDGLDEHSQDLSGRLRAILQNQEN
Sequence of DNA dC->dU-editing enzyme APOBEC-3A (P31941 whole entry): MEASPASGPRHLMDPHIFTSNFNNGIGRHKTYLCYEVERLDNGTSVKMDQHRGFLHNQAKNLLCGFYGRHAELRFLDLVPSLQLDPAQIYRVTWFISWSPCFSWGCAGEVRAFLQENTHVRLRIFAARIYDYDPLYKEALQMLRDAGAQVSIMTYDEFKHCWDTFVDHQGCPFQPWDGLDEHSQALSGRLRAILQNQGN
Sequence of DNA damage-inducible transcript 3 protein (P35639 whole entry): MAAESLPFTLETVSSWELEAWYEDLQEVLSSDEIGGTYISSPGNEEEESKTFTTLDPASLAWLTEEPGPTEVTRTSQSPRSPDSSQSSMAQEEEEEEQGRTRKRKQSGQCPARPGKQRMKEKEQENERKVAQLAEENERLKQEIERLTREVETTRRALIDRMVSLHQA
Sequence of Induced myeloid leukemia cell differentiation protein Mcl-1 (Q07820 whole entry): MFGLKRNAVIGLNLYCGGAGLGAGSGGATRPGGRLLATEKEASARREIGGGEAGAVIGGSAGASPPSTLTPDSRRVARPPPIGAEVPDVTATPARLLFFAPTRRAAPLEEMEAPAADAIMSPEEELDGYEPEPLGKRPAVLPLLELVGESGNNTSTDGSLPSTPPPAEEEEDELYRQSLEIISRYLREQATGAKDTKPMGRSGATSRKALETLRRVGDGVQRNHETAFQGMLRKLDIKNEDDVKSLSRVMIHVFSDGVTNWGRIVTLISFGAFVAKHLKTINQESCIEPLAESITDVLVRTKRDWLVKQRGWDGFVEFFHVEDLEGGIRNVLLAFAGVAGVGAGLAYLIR
Sequence of SWI/SNF-related matrix-associated actin-dependent regulator of chromatin subfamily A member 2 (P51531 whole entry): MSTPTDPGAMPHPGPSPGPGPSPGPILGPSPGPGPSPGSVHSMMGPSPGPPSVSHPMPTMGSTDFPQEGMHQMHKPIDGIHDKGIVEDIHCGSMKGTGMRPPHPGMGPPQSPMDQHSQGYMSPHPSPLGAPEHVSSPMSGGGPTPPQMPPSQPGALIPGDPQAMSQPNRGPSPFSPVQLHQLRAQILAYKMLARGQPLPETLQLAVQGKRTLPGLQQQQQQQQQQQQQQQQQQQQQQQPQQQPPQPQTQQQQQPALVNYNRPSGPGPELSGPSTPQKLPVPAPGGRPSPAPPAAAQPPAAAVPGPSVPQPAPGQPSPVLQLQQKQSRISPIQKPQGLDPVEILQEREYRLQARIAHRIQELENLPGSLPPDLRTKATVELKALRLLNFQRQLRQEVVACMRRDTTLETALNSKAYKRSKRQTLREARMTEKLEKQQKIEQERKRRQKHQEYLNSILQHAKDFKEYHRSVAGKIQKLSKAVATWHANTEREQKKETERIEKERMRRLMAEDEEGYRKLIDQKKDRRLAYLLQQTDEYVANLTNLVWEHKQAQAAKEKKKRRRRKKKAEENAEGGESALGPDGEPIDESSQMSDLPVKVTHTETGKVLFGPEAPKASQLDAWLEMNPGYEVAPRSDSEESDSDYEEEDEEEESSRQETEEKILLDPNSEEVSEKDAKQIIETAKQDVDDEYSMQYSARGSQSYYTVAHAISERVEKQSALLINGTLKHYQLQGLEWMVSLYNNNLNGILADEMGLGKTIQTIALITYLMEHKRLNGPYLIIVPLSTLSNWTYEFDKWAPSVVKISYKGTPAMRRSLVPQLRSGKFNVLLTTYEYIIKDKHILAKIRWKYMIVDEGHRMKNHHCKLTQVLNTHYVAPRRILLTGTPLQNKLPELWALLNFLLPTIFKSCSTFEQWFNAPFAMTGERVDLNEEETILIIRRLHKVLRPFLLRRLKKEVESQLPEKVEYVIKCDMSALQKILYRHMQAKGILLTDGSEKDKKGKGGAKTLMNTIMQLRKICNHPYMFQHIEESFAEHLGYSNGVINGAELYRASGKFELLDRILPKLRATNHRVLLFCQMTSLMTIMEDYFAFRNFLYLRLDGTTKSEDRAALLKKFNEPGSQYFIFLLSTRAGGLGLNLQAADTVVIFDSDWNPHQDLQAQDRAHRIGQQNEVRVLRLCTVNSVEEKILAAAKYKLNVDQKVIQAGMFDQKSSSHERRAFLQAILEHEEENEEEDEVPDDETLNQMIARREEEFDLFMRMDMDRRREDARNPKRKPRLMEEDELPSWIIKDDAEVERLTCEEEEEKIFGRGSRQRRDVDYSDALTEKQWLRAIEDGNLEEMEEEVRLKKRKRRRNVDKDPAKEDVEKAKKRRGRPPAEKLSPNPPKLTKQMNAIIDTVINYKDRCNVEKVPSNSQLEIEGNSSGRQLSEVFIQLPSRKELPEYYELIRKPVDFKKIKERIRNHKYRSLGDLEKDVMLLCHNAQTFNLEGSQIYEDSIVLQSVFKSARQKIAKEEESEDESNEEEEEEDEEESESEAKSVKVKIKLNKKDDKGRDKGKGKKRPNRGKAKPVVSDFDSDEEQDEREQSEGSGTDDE
Sequence of Intestinal-type alkaline phosphatase (P09923 whole entry): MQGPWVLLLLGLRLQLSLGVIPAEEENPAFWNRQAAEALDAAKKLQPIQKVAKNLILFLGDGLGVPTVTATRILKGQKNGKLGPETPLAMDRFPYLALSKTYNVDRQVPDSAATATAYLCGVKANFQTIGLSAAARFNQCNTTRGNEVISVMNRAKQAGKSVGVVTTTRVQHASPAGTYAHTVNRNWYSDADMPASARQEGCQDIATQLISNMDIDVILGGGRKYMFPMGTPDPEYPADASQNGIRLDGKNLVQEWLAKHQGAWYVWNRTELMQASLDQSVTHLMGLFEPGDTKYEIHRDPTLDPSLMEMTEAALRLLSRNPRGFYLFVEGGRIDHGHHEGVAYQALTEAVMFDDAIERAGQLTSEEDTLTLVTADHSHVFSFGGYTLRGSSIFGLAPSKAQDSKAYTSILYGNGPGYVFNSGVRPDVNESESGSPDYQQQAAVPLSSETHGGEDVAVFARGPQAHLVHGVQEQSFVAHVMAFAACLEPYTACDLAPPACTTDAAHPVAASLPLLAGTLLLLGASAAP

Question: For `CC(=O)C1=C(S(=O)(=O)c2ccc(C)cc2)CS(=O)(=O)C1`, which IC50 [1] is on record?
Answer: 10.9 µM (active)

Question: What about the IC50 [2] of the same compound?
Answer: > 100 µM (inactive)

Question: And the “Absolute IC50 (CHOP)” value [3]?
Answer: 10 µM

Question: What about the EC50 [4] of the same compound?
Answer: > 91.2 µM (inactive)

Question: And the IC50 [5]?
Answer: 34.3 µM (active)

Question: What about the IC50 [6] of the same compound?
Answer: 28.1 µM (active)

Question: What about the IC50 [7] of the same compound?
Answer: 8.26 µM (active)

Question: What about the EC50 [8] of the same compound?
Answer: > 91.2 µM (inactive)

Question: And the EC50 [9]?
Answer: 4.73 µM (active)

Question: For `Cc1ccc2c(c1)nnc1nnc(SCC(=O)O)n12`, which IC50 [10] is on record?
Answer: 9.05 µM (active)

Question: What about the EC50 [11] of the same compound?
Answer: > 53 µM (inactive)

Question: And the IC50 [12]?
Answer: 10.9 µM (active)

Question: And the IC50 [13]?
Answer: > 100 µM (inactive)

Question: With `COc1cc([N+](=O)[O-])ccc1NC(=O)COC(=O)c1ccc2c(c1)NC(=O)CS2` as the compound, how does the IC50 [14] read?
Answer: 5.18 µM (active)

Question: And the IC50 [15]?
Answer: > 100 µM (inactive)

Question: What does the source list for `Sc1nnc(COc2ccccc2)n1/N=C/c1ccncc1`?
Answer: IC50 [2]: > 100 µM (inactive); IC50 [7]: 3.12 µM (active)
